Results published in ChEMBL document CHEMBL5316299, “Discovery of Novel Drug-like PHGDH Inhibitors to Disrupt Serine Biosynthesis for Cancer Therapy” (J Med Chem, 2023).

Legend:
[1] = target: T1, D-3-phosphoglycerate dehydrogenase (Homo sapiens, UniProt O43175); assay: Inhibition of PHGDH (unknown origin) preincubated for 30 mins followed by substrate addition and measured after 5 mins
T1 sequence (O43175 whole entry): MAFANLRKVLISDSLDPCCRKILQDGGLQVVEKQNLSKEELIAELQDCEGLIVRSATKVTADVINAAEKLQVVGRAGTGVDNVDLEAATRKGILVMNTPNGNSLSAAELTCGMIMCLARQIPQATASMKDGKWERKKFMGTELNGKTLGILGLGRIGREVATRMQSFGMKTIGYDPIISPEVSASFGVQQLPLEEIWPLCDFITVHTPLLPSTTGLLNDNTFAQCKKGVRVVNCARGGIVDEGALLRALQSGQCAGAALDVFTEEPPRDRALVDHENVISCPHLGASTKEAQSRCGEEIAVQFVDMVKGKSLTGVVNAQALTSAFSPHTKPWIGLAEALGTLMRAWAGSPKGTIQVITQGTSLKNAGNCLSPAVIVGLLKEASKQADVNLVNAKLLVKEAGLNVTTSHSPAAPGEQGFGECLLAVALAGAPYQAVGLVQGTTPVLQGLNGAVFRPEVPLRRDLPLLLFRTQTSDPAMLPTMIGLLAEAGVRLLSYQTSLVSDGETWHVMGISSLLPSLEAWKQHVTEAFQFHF

MCF-10A = assay: Antiproliferative activity against human MCF-10A cells assessed as reduction in cell viability measured for 72 hrs by CCK-8 assay; assay type: functional, cell-based
MDA-MB-468 = assay: Antiproliferative activity against human MDA-MB-468 cells expressing PHGDH assessed as reduction in cell viability measured for 72 hrs by CCK-8 assay; assay type: functional, cell-based; conditions: MDA-MB-468, 72 h

Compound	IC50 [1] [µM]	IC50 (MCF-10A) [µM]	IC50 (MDA-MB-468) [µM]
CC(=O)c1cccc(NS(=O)(=O)c2ccc(C(=O)Nc3nc(-c4ccc(F)cc4)cs3)cc2)c1	2.6	100	11.7
O=C(Nc1nc(-c2ccccc2)cs1)c1ccc(S(=O)(=O)NCCN2CCOCC2)cc1	10.8	–	–
O=C(Nc1nc(-c2ccccc2)cs1)c1ccc(S(=O)(=O)Nc2cccc(CCO)c2)cc1	7.49	93.4	8.1
CN1CCN(c2cccc(NS(=O)(=O)c3ccc(C(=O)Nc4nc(-c5ccccc5)cs4)cc3)c2)CC1	6.16	25.5	9.7
CC(=O)c1cccc(NS(=O)(=O)c2ccc(C(=O)Nc3nc(-c4ccccc4F)cs3)cc2)c1	3.8	62.9	65.4
CC(=O)c1cccc(NS(=O)(=O)c2ccc(C(=O)Nc3nc(-c4ccc(F)cc4F)cs3)cc2)c1	6.7	–	–
O=C(Nc1nc(-c2ccccc2)cs1)c1ccc(S(=O)(=O)N2CCC(C(=O)O)CC2)cc1	13	–	–
O=C(Nc1nc(-c2ccccc2)cs1)c1ccc(S(=O)(=O)O)cc1	12.6	–	> 100
CC(=O)c1cccc(NS(=O)(=O)c2ccc(C(=O)Nc3cc(-c4ccccc4)cs3)cc2)c1	12.9	–	–
Cc1cc(C)nc(NS(=O)(=O)c2ccc(C(=O)Nc3nc(-c4ccccc4)cs3)cc2)n1	3.19	86.5	30.1
CN1CCN(CCNS(=O)(=O)c2ccc(C(=O)Nc3nc(-c4ccccc4)cs3)cc2)CC1	11.4	–	–
O=C(Nc1nc(-c2ccccc2)cs1)c1ccc(S(=O)(=O)Cl)cc1	18.5	–	–
O=C(O)Cc1cccc(NS(=O)(=O)c2ccc(C(=O)Nc3nc(-c4ccccc4)cs3)cc2)c1	7.89	> 100	> 100
O=C(Nc1nc(-c2ccccc2)cs1)c1ccc(S(=O)(=O)N2CCC(CCO)CC2)cc1	12.2	–	–
CC(=O)N1CCC(NS(=O)(=O)c2ccc(C(=O)Nc3nc(-c4ccccc4)cs3)cc2)CC1	6.81	> 100	72.3
O=C(Nc1nc(-c2ccccc2)cs1)c1ccc(S(=O)(=O)Nc2cccc(N3CCOCC3)c2)cc1	7.04	> 100	> 100
COC(=O)CS(=O)(=O)c1ccc([C@@H](CO)NC(=O)c2cc3c(Cl)cc(C)cc3n2C)cc1	0.162	> 100	27.9
CNC(=O)c1cccc(NS(=O)(=O)c2ccc(C(=O)Nc3nc(-c4ccccc4)cs3)cc2)c1	4.96	> 100	15
O=C(Nc1nc(-c2ccccc2)cs1)c1ccc(S(=O)(=O)Nc2cccc(CO)c2)cc1	7.74	> 100	10.1
COCCNS(=O)(=O)c1ccc(C(=O)Nc2nc(-c3ccccc3)cs2)cc1	17.8	–	–
CN(C)CCNS(=O)(=O)c1ccc(C(=O)Nc2nc(-c3ccccc3)cs2)cc1	15.7	–	–
O=C(O)CNS(=O)(=O)c1ccc(C(=O)Nc2nc(-c3ccccc3)cs2)cc1	15.8	–	–
O=C(Nc1nc(-c2ccccc2)cs1)c1ccc(S(=O)(=O)Nc2ccccc2)cc1	6.5	> 100	11.6
O=C(O)c1cccc(NS(=O)(=O)c2ccc(C(=O)Nc3nc(-c4ccccc4)cs3)cc2)c1	3.59	> 100	> 100
CC(=O)c1cccc(NS(=O)(=O)c2ccc(C(=O)Nc3nc(-c4ccc(F)c(F)c4)cs3)cc2)c1	17.2	–	–
CCOC(=O)c1sc(NC(=O)c2ccco2)c(SC#N)c1C	–	57.2	20.9
CC(=O)c1cccc(NS(=O)(=O)c2ccc(C(=O)Nc3nc(-c4ccccc4)cs3)cc2)c1	5.33	> 100	8.4
